We go through five compounds from patent US10238648B2 (priority 2014, dated 2019).

The conditions of data set [1]: cited from earlier work.
The conditions of data set [2]: oral dose x bioavailability. An excerpt:
[formula] [formula] [formula] Dual Penetration Enhancer Formulations

The test system of a further data set is sedation in dogs. Particulars: 4.5 mg intravenous dose reversed by 1.2 mg intravenous naloxone; cited from earlier work.
Data set [3] can be described thus: Permeation of abuse-deterrent (naloxone) formulations through separating membrane and placebo opioid layer, 72 h diffusion study. Particulars: from abuse deterrent layer NLX-2014-01-011. The class given is in vitro ADME. The method, then:
The ability of abuse-deterrent layer formulations to migrate into the oxymorphone layer was investigated. A placebo oxymorphone layer was prepared and two abuse-deterrent formulations (NLX-2014-01-011 and NLX-2014-01-012) were tested with different separating layers. The appearance of both formulations was uniform and aesthetically pleasing. When assembled, no distinguishable layers could be observed and the layers themselves were inseparable. Patches of size 0.95 cm^2 patches were punched out from the release liner side of the assembled roll.
Insofar as NLX-2014-01-011 is concerned, while two cells did show permeation from the abuse deterrent layer, this was probably due to the abuse deterrent layer contacting the skin, as by the end of the experiment almost no permeation was observed.

Counter-ions that a name gives are not always drawn. Like-named read-outs stand apart in the source and are kept apart here.

In the case of `COc1ccc2c3c1O[C@H]1C(=O)CC[C@H]4[C@@H](C2)N(C)CC[C@]314` [Hydrocodone], the Bioavailability in data set [1] (po) is 80%.
For the compound `CN1CC[C@]23c4c5ccc(O)c4O[C@H]2C(=O)CC[C@@]3(O)[C@H]1C5` [Oxymorphone], the “Dose after first pass effect” value in data set [2] is given as 4.0 mg/day.
As for `C=CCN1CC[C@]23c4c5ccc(O)c4O[C@H]2C(=O)CC[C@@]3(O)[C@H]1C5` [naloxone], in the data set on sedation in dogs, the “reversal of oxymorphone sedation” value is on record as “reversed”.
Turning to `COc1ccc2c3c1O[C@H]1C(=O)CC[C@@]4(O)[C@@H](C2)N(C)CC[C@]314` [Oxycodone], the Bioavailability in data set [1] (oral) was 87%.
With `C=CCN1CC[C@]23c4c5ccc(O)c4O[C@H]2C(=O)CC[C@@]3(O)[C@H]1C5` [naloxone hydrochloride], in data set [3], the “permeability of the antagonist in the system” value was “largely impermeable”.
